≈ marks a conversion by molar mass, not a printed value. Like-named read-outs stand apart in the source and are kept apart here.
What was measured:
[1] = system: PA14 AT/P cells; test: AT/P cells formation assay in PA14; type: cell-based, Pseudomonas aeruginosa; conditions: Pseudomonas aeruginosa, PA14, 24 h, read-out: inhibition of AT/P cells formation
[2] = system: ΔmvfR biofilm; test: Biofilm formation of ΔmvfR mutant (off-target); conditions: Pseudomonas aeruginosa, PA14, 24 h, read-out: Biofilm formation, ΔmvfR + compound; PA14 about 100; single replicates (Figure 4c)
[3] = system: 16 MDR P. aeruginosa clinical isolates; test: Pyocyanin production in MDR clinical isolates; conditions: Pseudomonas aeruginosa, 18 h, Control about 100, replicates
Description: The over-day culture was grown to OD600nm 1.5., diluted again at 1:10,000 in 5 mL LB and incubated with 10 μM of the test compound or the vehicle control for 18 hours at 37 °C and 200 rpm in an incubator shaker. After 18 h, 1 mL of culture was centrifuged for 2 min at 20.000 x g. The supernatant was transferred to a new tube, 200 μL of this were loaded in a flat-bottom 96-well plate, and the pyocyanin levels were quantified by measuring at OD690nm in the infinite F200 plate reader using the Magellan software (Tecan, Switzerland). The same procedure was also followed for the pyocyanin production assessment for all the P. aeruginosa clinical isolates assessed in this study. The percent of pyocyanin was calculated compared to the PA14 culture grown in the absence of compounds.
Pyocyanin production was measured in 16 P.
aeruginosa clinical isolates 18hr post-growth in the presence or absence of 10 µM of each NAM
compound. The percent of pyocyanin production was calculated by comparing the same strain grown
in the presence of the vehicle control. b.

[4] = target: T1, MvfR protein (MvfRC87) (Pseudomonas aeruginosa, UniProt Q9I4X0); type: binding; conditions: SPR
T1 construct: The MvfRC87 protein purified as in Xiao et. al., 2006; made in house
Outline: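 MvfRC87 amine-coupled to a CM7 chip (3000–5000 RU) and binding measured by SPR. Double-reference-corrected responses 5 s before end of association plotted against concentration, for inhibitor alone and with native ligand PQS, compared with responses calculated for different binding sites.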

[5] = system: pyocyanin production in PA14; test: Pyocyanin production assay; conditions: Pseudomonas aeruginosa
[6] = system: MvfR-regulated small molecules in PA14; test: Production of HAQs, 2-AA, DHQ and AA in PA14 cultures (LC-MS); conditions: Pseudomonas aeruginosa
Description: The HAQs HHQ, PQS, HQNO, and non-HAQs: 2-AA and DHQ produced by PA14 cells were quantified in the presence of NAMs. The overnight grown starter culture was diluted 1:100 in 5 mL LB media in a glass tube and was allowed to grow in the presence (50 µM) or absence of compound at 37 °C and 200 rpm in an incubator shaker until OD600 was 3. Bacterial cultures were subsequently mixed 1:1 (400 μL: 400 μL) with 100% methanol containing 20 ppm (20 μg mL^−1) of tetradeutero-PQS (PQS-D4) and 10 ppm of tetradeutero-HHQ (HHQ-D4) in a 1.5 mL Eppendorf tube. The mixture was vortexed for 5 seconds and spun down for 5 minutes at 12,000 x g. A 700 μL aliquot of the supernatant was removed and stored in glass vials at −20 °C until further liquid chromatography-mass spectrophotometry (LC/MS) analysis as previously described in Lepine et al., 2003[66]. LC/MC analysis was performed using a Micromass Quattro II triple quadrupole mass spectrometer (Micromass Canada, Pointe-Claire, Canada) in positive electrospray ionization mode, interfaced to an HP1100 HPLC equipped with a 4.5 × 150 mm reverse-phase C8 column.
GraphPad Prism 9.2.0 software was used to plot the IC50 curve against the percent inhibition of these small molecules’ production at each concentration.

[7] = system: PA14 isogenic mutant ΔmvfR AT/P cells; test: AT/P cell formation in ΔmvfR mutant (off-target); conditions: Pseudomonas aeruginosa, PA14, 24 h, read-out: AT/P cell formation, ΔmvfR + compound; PA14 about 100; single replicates (Figure 4b)
[8] = system: mvfR mutant constitutively expressing the pqsABCDE operon; type: cell-based; conditions: Pseudomonas aeruginosa, control about 100, single replicates (Figure 4a)
[9] = system: pqsA promoter (PA14 PpqsA-GFPASV); test: pqsA-GFP reporter expression; type: cell-based, Pseudomonas aeruginosa; conditions: Pseudomonas aeruginosa
[10] = Solubility in iPBS pH 7.4 by HPLC; type: physicochemical; conditions: isotonic phosphate buffer (iPBS), aqueous with cosolvent or surfactant or cyclodextrin, kinetic from dmso stock; iPBS pH 7.4, HPLC; read-out: Solubility (M) in PBS
Outline: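 Compounds from 10 mM DMSO stock shaken 4 h at room temperature in iPBS pH 7.4 (10 mM PBS, 2.7 mM KCl, 140 mM NaCl, 0.05% Tween), then filtered. Concentration measured by HPLC-UV against a known standard solution; solubility given as ratio of compound in test solution to standard.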

T1 sequence (Q9I4X0 87-332): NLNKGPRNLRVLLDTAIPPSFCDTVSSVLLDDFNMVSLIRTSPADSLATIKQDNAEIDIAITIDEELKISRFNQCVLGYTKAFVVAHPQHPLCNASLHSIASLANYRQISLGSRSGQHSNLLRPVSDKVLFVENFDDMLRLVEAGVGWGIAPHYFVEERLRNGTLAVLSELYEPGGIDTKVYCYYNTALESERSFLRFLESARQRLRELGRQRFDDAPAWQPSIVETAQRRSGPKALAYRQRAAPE

In the case of `N#Cc1ccc(NC(=O)CC(=O)Nc2ccc(C#N)nc2)cc1` [D77], the inhibition at 10 µM [1] is reported as at least 51%, the activity at 10 µM [2] is reported as 23.6% and the activity at 10 µM ([3]; read-out: Pyocyanin production relative to Control, clinical isolate LGR-4325) is reported as 15%. For the same compound, the activity at 10 µM ([3]; read-out: Pyocyanin production relative to Control, clinical isolate LGR-4326) was 12.1%, the activity at 10 µM ([3]; read-out: Pyocyanin production relative to Control, clinical isolate LGR-4327) was 20.6% and the activity at 10 µM ([3]; read-out: Pyocyanin production relative to Control, clinical isolate LGR-4328) was 25.6%. The activity at 10 µM ([3]; read-out: Pyocyanin production relative to Control, clinical isolate LGR-4330) was 35.1%, the activity at 10 µM ([3]; read-out: Pyocyanin production relative to Control, clinical isolate LGR-4331 (first section, r117)) was 18.8% and the activity at 10 µM ([3]; read-out: Pyocyanin production relative to Control, clinical isolate LGR-4331 (second section, r140)) was 8.31%. It also gave an activity at 10 µM ([3]; read-out: Pyocyanin production relative to Control, clinical isolate LGR-4333) of 11.8%, an activity at 10 µM ([3]; read-out: Pyocyanin production relative to Control, clinical isolate LGR-4343) of 22.6% and an activity at 10 µM ([3]; read-out: Pyocyanin production relative to Control, clinical isolate LGR-4344) of 26.1%. For the same compound, the activity at 10 µM ([3]; read-out: Pyocyanin production relative to Control, clinical isolate LGR-4348) was 19%, the activity at 10 µM ([3]; read-out: Pyocyanin production relative to Control, clinical isolate LGR-4356) was 14.3% and the activity at 10 µM ([3]; read-out: Pyocyanin production relative to Control, clinical isolate LGR-4362) was 39.2%. The activity at 10 µM ([3]; read-out: Pyocyanin production relative to Control, clinical isolate LGR-4363) was 18.5%, the activity at 10 µM ([3]; read-out: Pyocyanin production relative to Control, clinical isolate LGR-4364 (first section, r326)) was 18.9% and the activity at 10 µM ([3]; read-out: Pyocyanin production relative to Control, clinical isolate LGR-4364 (second section, r349)) was 16.9%. For the same compound, the “Response Unit (RU)” value ([4]; Concentration 1.00E-05 M) was 30.9 RU, the “Response Unit (RU)” value ([4]; Concentration 1.00E-06 M) was 19.8 RU and the “Response Unit (RU)” value ([4]; Concentration 1.00E-07 M) was 5.9 RU. The “Response Unit (RU)” value ([4]; Concentration 1.00E-08 M) was 0.7 RU, the “Response Unit (RU)” value ([4]; Concentration 3.16E-06 M) was 26.6 RU and the “Response Unit (RU)” value ([4]; Concentration 3.16E-07 M) was 11.8 RU. The “Response Unit (RU)” value ([4]; Concentration 3.16E-08 M) was 2.2 RU, the activity at 50 µM ([5]; PA14, 18 h, read-out: % Production Pyocyanin) was 7% and the IC50 ([5]; PA14, read-out: IC50 pyocyanin production) was 4.07 µM. The activity at 50 µM ([6]; PA14, read-out: % Production 2-AA) was 19%, the activity at 50 µM ([6]; PA14, read-out: % Production AA) was 777% and the activity at 50 µM ([6]; PA14, read-out: % Production DHQ) was 20%. For the same compound, the activity at 50 µM ([6]; PA14, read-out: % Production HHQ) was 10%, the activity at 50 µM ([6]; PA14, read-out: % Production HQNO) was 64% and the activity at 50 µM ([6]; PA14, read-out: % Production PQS) was 24%. It also gave an inhibition at 50 µM ([6]; PA14, read-out: HHQ production inhibition) of 89 to 99%, an inhibition at 50 µM ([6]; PA14, read-out: HQNO production inhibition) of 40 to 92% and an inhibition at 50 µM ([6]; PA14, read-out: PQS production inhibition) of 76 to 97%. The inhibition at 50 µM ([6]; PA14, read-out: inhibition of 2-AA production) was 82 to 95%, the inhibition at 50 µM ([6]; PA14, read-out: inhibition of DHQ production) was 82 to 96% and the activity at 10 µM [7] was 29.3%. The activity at 50 µM ([8]; read-out: 2-AA, ΔmvfR-pqsABCD strain) was 104%, the activity at 50 µM ([8]; read-out: DHQ, ΔmvfR-pqsABCD strain) was 94.5% and the activity at 50 µM ([8]; read-out: HHQ, ΔmvfR-pqsABCD strain) was 98%. For the same compound, the activity at 50 µM ([8]; read-out: HQNO, ΔmvfR-pqsABCD strain) was 102%, the activity at 50 µM ([8]; read-out: PQS, ΔmvfR-pqsABCD strain) was 90.2% and the activity at 50 µM ([9]; PA14, read-out: % Production pqsA-GFP) was 1%. For the same compound, the IC50 ([9]; PA14, read-out: IC50 pqsA-GFP expression, PA14, 13 concentrations) was 6.4 µM and the solubility at 4 h [10] was 3.9e-05 M (≈ 11.9 µg/mL).
